Among the data in patent US9040528B2, “Chemical compounds 542” (AstraZeneca AB, priority 2008, dated 2015) are IC50 values, retold here.

In the first test the target is Escherichia coli DNA gyrase A/B tetramer (Escherichia coli (strain K12), UniProt P0AES4+P0AES6). Nature of the test: DNA gyrase supercoiling activity fluorescence polarisation assay. Type of test: biochemical.
Conditions: not given
In short, it runs like this: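 Supercoiling reactions quenched with 40 nM 5′-BODIPY-FL triplex-forming oligonucleotide probe in pH 3.5 NaCl/sodium acetate buffer; after 60 min, fluorescence anisotropy read (ex 485/em 535 nm). IC50 by nonlinear regression, normalised to 0.8% DMSO (100% activity) and 5 μM ciprofloxacin (0% activity).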
In general, IC50 refers to the concentration that gives 50% inhibition. On to `C[C@@H]1CN2c3c(cc4c(OC(=O)OC(C)(C)C)noc4c3F)CC3(C(=O)NC(=O)NC3=O)[C@H]2[C@H](C)O1` (relative stereo) [Example 102, tert-butyl(2R,4S,4aS)-rel-11-fluoro-2,4-dimethyl-2′,4′,6′-trioxo-1,1′,2,3′,4,4′,4a,6′-octahydro-2′H,6H-spiro[isoxazolo[4,5-g][1,4]oxazino[4,3-a]quinoline-5,5′-pyrimidin]-8-yl carbonate], for which it took 2700 nM to reach half-maximal inhibition (IC50).

The same test, now with this note: 5 nM enzyme, relaxed plasmid, 0.3 mM ATP, ambient temperature; read-out: E. coli DNA gyrase supercoiling IC50.
Regarding `C[C@@H]1CN2c3c(cc4c(-c5ncc(C(=O)N(C)C)s5)noc4c3F)CC3(C(=O)NC(=O)NC3=O)[C@H]2[C@H](C)O1` (relative stereo) [Example 87, 2-[(2R,4S,4aS)-rel-11-fluoro-2,4-dimethyl-2′,4′,6′-trioxo-1,1′,2,3′,4,4′,4a,6′-octahydro-2′H,6H-spiro[1,4-oxazino[4,3-a][1,2]oxazolo[4,5-g]quinoline-5,5′-pyrimidin]-8-yl]-N,N-dimethyl-1,3-thiazole-5-carboxamide], the IC50 came out at 6700 nM.

Take `C[C@@H]1CN2c3c(cc4c(-c5scnc5C#N)noc4c3F)CC3(C(=O)NC(=O)NC3=O)[C@H]2[C@H](C)O1` (relative stereo) [Example 88, 5-[(2R,4S,4aS)-rel-11-fluoro-2,4-dimethyl-2′,4′,6′-trioxo-1,1′,2,3′,4,4′,4a,6′-octahydro-2′H,6H-spiro[1,4-oxazino[4,3-a][1,2]oxazolo[4,5-g]quinoline-5,5′-pyrimidin]-8-yl]-1,3-thiazole-4-carbonitrile]: the IC50 is 1200 nM.

As for `C[C@@H]1CN2c3c(cc4c(-c5nccn5C)noc4c3Cl)CC3(C(=O)NC(=O)NC3=O)[C@H]2[C@H](C)O1` (relative stereo) [Example 89, (2R,4S,4aS)-rel-11-chloro-2,4-dimethyl-8-(1-methyl-1H-imidazol-2-yl)-1,2,4,4a-tetrahydro-2′H,6H-spiro[1,4-oxazino[4,3-a][1,2]oxazolo[4,5-g]quinoline-5,5′-pyrimidine]-2′,4′,6′(1′H,3′H)-trione], the IC50 came out at 1300 nM.

With `Cc1ccc(-c2noc3c(F)c4c(cc23)CC2(C(=O)NC(=O)NC2=O)[C@H]2[C@H](C)O[C@H](C)CN42)cn1` (relative stereo) [Example 91, (2R,4S,4aS)-rel-11-fluoro-2,4-dimethyl-8-(6-methylpyridin-3-yl)-2,4,4a,6-tetrahydro-1H,1′H-spiro[isoxazolo[4,5-g][1,4]oxazino[4,3-a]quinoline-5,5′-pyrimidine]-2′,4′,6′(3′H)-trione], the IC50 is 1900 nM.

On to `C[C@@H]1CN2c3c(cc4c(C(=O)N5CC(F)(F)C5)noc4c3F)CC3(C(=O)NC(=O)NC3=O)[C@H]2[C@H](C)O1` (relative stereo) [Example 95, (2R,4S,4aS)-rel-8-(3,3-difluoroazetidine-1-carbonyl)-11-fluoro-2,4-dimethyl-2,4,4a,6-tetrahydro-1H,1′H-spiro[isoxazolo[4,5-g][1,4]oxazino[4,3-a]quinoline-5,5′-pyrimidine]-2′,4′,6′(3′H)-trione], for which the IC50 came to 300 nM.

On to `C[C@@H]1CN2c3c(cc4c(-c5ccco5)noc4c3F)CC3(C(=O)NC(=O)NC3=O)[C@H]2[C@H](C)O1` (relative stereo) [Example 97, (2R,4S,4aS)-rel-11-fluoro-8-(furan-2-yl)-2,4-dimethyl-2,4,4a,6-tetrahydro-1H,1′H-spiro[isoxazolo[4,5-g][1,4]oxazino[4,3-a]quinoline-5,5′-pyrimidine]-2′,4′,6′(3′H)-trione], for which the IC50 came to 700 nM.

As to `C[C@@H]1CN2c3c(cc4c(-c5cncs5)noc4c3F)CC3(C(=O)NC(=O)NC3=O)[C@H]2[C@H](C)O1` (relative stereo) [Example 98, (2R,4S,4aS)-rel-11-fluoro-2,4-dimethyl-8-(thiazol-5-yl)-2,4,4a,6-tetrahydro-1H,1′H-spiro[isoxazolo[4,5-g][1,4]oxazino[4,3-a]quinoline-5,5′-pyrimidine]-2′,4′,6′(3′H)-trione], the half-inhibitory concentration (IC50) came to 400 nM.

For `C[C@@H]1CN2c3c(cc4c(-c5ccccc5F)noc4c3F)CC3(C(=O)NC(=O)NC3=O)[C@H]2[C@H](C)O1` (relative stereo) [Example 99, (2R,4S,4aS)-rel-11-fluoro-8-(2-fluorophenyl)-2,4-dimethyl-2,4,4a,6-tetrahydro-1H,1′H-spiro[isoxazolo[4,5-g][1,4]oxazino[4,3-a]quinoline-5,5′-pyrimidine]-2′,4′,6′(3′H)-trione], the IC50 stood at 400 nM.

As to `C[C@@H]1CN2c3c(cc4c(C5CCOCC5)noc4c3F)CC3(C(=O)NC(=O)NC3=O)[C@H]2[C@H](C)O1` (relative stereo) [Example 100, (2R,4S,4aS)-rel-11-fluoro-2,4-dimethyl-8-(tetrahydro-2H-pyran-4-yl)-2,4,4a,6-tetrahydro-1H,1′H-spiro[isoxazolo[4,5-g][1,4]oxazino[4,3-a]quinoline-5,5′-pyrimidine]-2′,4′,6′(3′H)-trione], the IC50 came out at 4100 nM.

In the case of `Cc1c2c(cc3c(-c4cnccn4)noc13)CC1(C(=O)NC(=O)NC1=O)[C@H]1[C@H](C)O[C@H](C)CN21` (relative stereo) [Example 101, (2R,4S,4aS)-rel-2,4,11-trimethyl-8-(pyrazin-2-yl)-1,2,4,4a-tetrahydro-2′H,6H-spiro[1,4-oxazino[4,3-a][1,2]oxazolo[4,5-g]quinoline-5,5′-pyrimidine]-2′,4′,6′(1′H,3′H)-trione], the IC50 was 1400 nM.

On to `COC[C@@H]1O[C@H](C)CN2c3c(cc4c(C)noc4c3F)CC3(C(=O)NC(=O)NC3=O)[C@@H]12` (relative stereo) [Example 105, (2R,4R,4aS)-rel-11-fluoro-4-(methoxymethyl)-2,8-dimethyl-1,2,4,4a-tetrahydro-2′H,6H-spiro[1,4-oxazino[4,3-a][1,2]oxazolo[4,5-g]quinoline-5,5′-pyrimidine]-2′,4′,6′(1′H,3′H)-trione], for which the IC50 is 700 nM.

Consider `COC[C@@H]1CN2c3c(cc4c(C)noc4c3F)CC3(C(=O)NC(=O)NC3=O)[C@H]2[C@H](C)O1` (relative stereo) [Example 106, (2S,4S,4aS)-rel-11-fluoro-2-(methoxymethyl)-4,8-dimethyl-1,2,4,4a-tetrahydro-2′H,6H-spiro[1,4-oxazino[4,3-a][1,2]oxazolo[4,5-g]quinoline-5,5′-pyrimidine]-2′,4′,6′(1′H,3′H)-trione], for which the IC50 was 1100 nM.

Consider `C[C@@H]1CN2c3c(nc4c(-c5ccccn5)noc4c3Cl)CC3(C(=O)NC(=O)NC3=O)[C@H]2[C@H](C)O1` (relative stereo) [Example 107, (2R,4S,4aS)-rel-11-chloro-2,4-dimethyl-8-(pyridyin-2-yl)-2,4,4a,6-tetrahydro-1H,1′H-spiro[isoxazolo[4,5-g][1,4]oxazino[4,3-a][1,5]naphthyridine-5,5′-pyrimidine]-2′,4′,6′(3′H)-trione], for which the IC50 was determined as 1400 nM.

For `C[C@@H]1CN2c3c(nc4c(-c5ccncc5)noc4c3Cl)CC3(C(=O)NC(=O)NC3=O)[C@H]2[C@H](C)O1` (relative stereo) [Example 108, (2R,4S,4aS)-rel-11-chloro-2,4-dimethyl-8-(pyridyin-4-yl)-2,4,4a,6-tetrahydro-1H,1′H-spiro[isoxazolo[4,5-g][1,4]oxazino[4,3-a][1,5]naphthyridine-5,5′-pyrimidine]-2′,4′,6′(3′H)-trione], the IC50 is 800 nM.

On to `C[C@@H]1CN2c3c(nc4c(-c5cccnc5)noc4c3Cl)CC3(C(=O)NC(=O)NC3=O)[C@H]2[C@H](C)O1` (relative stereo) [Example 109, (2R,4S,4aS)-rel-11-chloro-2,4-dimethyl-8-(pyridyin-3-yl)-2,4,4a,6-tetrahydro-1H,1′H-spiro[isoxazolo[4,5-g][1,4]oxazino[4,3-a][1,5]naphthyridine-5,5′-pyrimidine]-2′,4′,6′(3′H)-trione], for which the IC50 was 500 nM.

As to `C[C@@H]1CN2c3c(nc4c(-c5cnccn5)noc4c3Cl)CC3(C(=O)NC(=O)NC3=O)[C@H]2[C@H](C)O1` (relative stereo) [Example 110, (2R,4S,4aS)-rel-11-chloro-2,4-dimethyl-8-(pyrazin-2-yl)-2,4,4a,6-tetrahydro-1H,1′H-spiro[isoxazolo[4,5-g][1,4]oxazino[4,3-a][1,5]naphthyridine-5,5′-pyrimidine]-2′,4′,6′(3′H)-trione], the IC50 is 3000 nM.

As to `C[C@@H]1CN2c3c(nc4c(-c5nccs5)noc4c3Cl)CC3(C(=O)NC(=O)NC3=O)[C@H]2[C@H](C)O1` (relative stereo) [Example 111, (2R,4S,4aS)-rel-11-chloro-2,4-dimethyl-8-(thiazol-2-yl)-2,4,4a,6-tetrahydro-1H,1′H-spiro[isoxazolo[4,5-g][1,4]oxazino[4,3-a][1,5]naphthyridine-5,5′-pyrimidine]-2′,4′,6′(3′H)-trione], the IC50 is 700 nM.

As to `Cc1csc(-c2noc3c(Cl)c4c(nc23)CC2(C(=O)NC(=O)NC2=O)[C@H]2[C@H](C)O[C@H](C)CN42)n1` (relative stereo) [Example 113, (2R,4S,4aS)-rel-11-Chloro-2,4-dimethyl-8-(4-methylthiazol-2-yl)-2,4,4a,6-tetrahydro-1H,1′H-spiro[isoxazolo[4,5-g][1,4]oxazino[4,3-a][1,5]naphthyridine-5,5′-pyrimidine]-2′,4′,6′(3′H)-trione], the IC50 was 2500 nM.

For `C[C@@H]1CN2c3c(nc4c(-c5nccn5C)noc4c3Cl)CC3(C(=O)NC(=O)NC3=O)[C@H]2[C@H](C)O1` (relative stereo) [Example 114, (2R,4S,4aS)-rel-11-Chloro-2,4-dimethyl-8-(1-methyl-1H-imidazol-2-yl)-2,4,4a,6-tetrahydro-1H,1′H-spiro[isoxazolo[4,5-g][1,4]oxazino[4,3-a][1,5]naphthyridine-5,5′-pyrimidine]-2′,4′,6′(3′H)-trione], the IC50 was found to be 5200 nM.
